The source of these data is US20070117836A1, “NAPTHALIMIDE DERIVATIVES, METHODS FOR THEIR PRODUCTION AND PHARMACEUTICAL COMPOSITIONS THEREFROM” (priority 2004, published 2007).

In series [1] the test system is Six human cancer cell lines (Hs683, U-373MG, HCT-15, LoVo, A549, MCF-7). Put plainly: MTT test of overall cell growth. Format: cell-based. The protocol: In order to characterize the in vitro activity of the compounds of the invention, MTT tests were performed to indirectly and rapidly measure, i.e. within 5 days, the effect of such a compound on the overall cell growth. The test measures the number of metabolically active living cells that are able to transform the yellow product 3-(4,5-dimethylthiazol-2-yl)-2,5-diphenyl tetrazolium bromide (herein referred as MTT) into the blue product formazan dye by mitochondrial reduction. The amount of formazan obtained at the end of the experiment was measured by means of a spectrophotometer and is directly proportional to the number of living cells. Determination of the optical density enables a quantitative measurement of the effect of the investigated compounds as compared to the control condition (untreated cells) and/or to other reference compounds (in casu mitonafide and amonafide).
Six human cancer cell lines described in table 1 were used in the MTT tests. These cell lines cover four histological cancer types, being glioma, colon, lung and breast cancers. Cells were allowed to grow in 96-well micro-wells with a flat bottom with an amount of 100 μl of cell suspension per well with 1,000 to 4,000 cells/well depending on the cell type used. Each cell line was seeded in an MEM 5% serum culture medium.
The detailed experimental procedure was as follows: after a 24-hour period of incubation at 37° C., the culture medium was replaced by 100 μl of fresh medium in which the compound to be tested was dissolved at the following molar concentrations: 10^−9 M, 5.10^−9 M, 10^−8 M, 5.10^−8 M, 10^−7 M, 5.10^−7 M, 10^−6 M, 5.10^−6 M and 10^−5 M. Each experiment was repeated 6 times.
After 72 hours of incubation at 37° C. with (experimental conditions) or without (control condition) the compound to be tested, the medium was replaced by 100 μl MTT dissolved in RPMI at a concentration of 1 mg/ml. The micro-wells were subsequently incubated during 3 hours at 37° C. and centrifuged at 400 g during 10 minutes. MTT was removed and formazan crystals formed were dissolved in 100 μl DMSO. The micro-wells were shaken for 5 minutes and read on a spectrophotometer at wavelengths of 570 nm (maximum formazan absorbance) and 630 nm (background noise).
For each experimental condition, the mean optical density was calculated, as well as the percentage of remaining living cells in comparison with the control.
On the technique in general: Tetrazolium assays rely on reduction of a dye to a coloured formazan, in cell work by metabolically active cells.

Another series can be described thus: in vivo. As to conditions: mouse.
Setting [2] is: Homo sapiens, 72 h, range of molar concentrations giving 50% inhibition of overall tumor cells growth, MTT, 72 hours incubation, six human cancer cell lines, read-out: IC50.
The mark [3] stands for this setting: range of molar concentrations giving 50% inhibition of overall tumor cells growth, MTT, 72 hours incubation, six human cancer cell lines, hydrochloride, read-out: IC50.

Molecules are shown by their SMILES. Like-named read-outs stand apart in the source and are kept apart here.
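Wherever MTD is given: highest single acute dose (intraperitoneal, intravenous, subcutaneous or oral) tolerated by tumor-free mice, assessed across five dose levels per drug.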

Experimental for in vivo: The maximum tolerated dose (herein after MTD) is defined as the maximum amount of a given drug which can be administered acutely (i.e. in one intraperitoneal, intravenous, subcutaneous or oral single dose) to healthy animals, i.e. animals not grafted with tumors. The survival times and weights of the animals are recorded up to 14 days post injection. Five different doses of each drug are used for the determination of the MTD index. […] Each experimental group comprised 3 mice for the determination of the MTD index (expressed in mg/kg).

As usually defined, the IC50 is the point on the concentration scale where inhibition reaches its midpoint. Regarding `CN(C)CCN1C(=O)c2cccc3cc(NC(=O)NC(=O)CCl)cc(c23)C1=O` [Example 1, 2-chloro-N-[({2-[2-(dimethylamino)ethyl]-1,3-dioxo-2,3-dihydro-1H-benzo[de]isoquinolin-5-yl}amino)carbonyl]acetamide], in series [1] (setting [2]), the IC50 lay within 1 to 5 µM. For `CN(C)CCN1C(=O)c2cccc3cc(NC(=O)NC(=O)c4ccccc4)cc(c23)C1=O` [Example 3, N-[({2-[2-(dimethylamino)ethyl]-1.3-dioxo-2,3-dihydro-1H-benzo[de]isoquinolin-5-yl}amino)carbonyl]benzamide], the IC50 in series [1] (setting [2]) was in the range of 1 to 5 µM. Besides, in “in vivo” (intraperitoneal), the MTD at 14 days came to 80 mg/kg. As to `CCOC(=O)NC(=O)Nc1cc2c3c(cccc3c1)C(=O)N(CCN(C)C)C2=O` [Example 4, ethyl({2-[2-(dimethylamino)ethyl]-1.3-dioxo-2,3-dihydro-1H-benzo[de]isoquinolin-5-yl}amino)carbonylcarbamate], the IC50 in series [1] (setting [2]) lay in the range of 1 to 5 µM. This compound registered an MTD at 14 days in the series “in vivo” of 80 mg/kg. Regarding `CN(C)CCN1C(=O)c2cccc3cc(NC(=O)NCCCl)cc(c23)C1=O` [Example 5, N-[2-[2-(dimethylamino)ethyl]-1,3-dioxo-2,3-dihydro-1H-benzo[de]isoquinolin-5-yl]-N′-(2-chloroethyl)urea], the IC50 in series [1] (Homo sapiens, 72 h) fell in the range of 1 to 5 µM. In addition, the MTD at 14 days in the series “in vivo” is above 160 mg/kg. Regarding `CN(C)CCN1C(=O)c2cccc3cc(NC(=O)Nc4ccc(Cl)cc4)cc(c23)C1=O` [Example 6, N-[2-[2-(dimethylamino)ethyl]-1,3-dioxo-2,3-dihydro-1H-benzo[de]isoquinolin-5-yl]-N′-(4-chlorophenyl)urea], in series [1] (setting [2]), the IC50 was 1 to 5 µM. In the series “in vivo” (intraperitoneal), this compound returned an MTD at 14 days above 160 mg/kg. For `CCOC(=O)c1ccc(NC(=O)Nc2cc3c4c(cccc4c2)C(=O)N(CCN(C)C)C3=O)cc1` [Example 8], the 50% inhibitory concentration (IC50) in series [1] (setting [2]) lay within 1 to 5 µM. This compound showed an MTD at 14 days in “in vivo” (intraperitoneal) above 160 mg/kg. The corresponding values for `CCOC(=O)CCC(=O)Nc1cc2c3c(cccc3c1)C(=O)N(CCN(C)C)C2=O` [Example 11] are above 10 µM and above 160 mg/kg.

Take `CN(C)CCN1C(=O)c2cccc3cc(NC(=O)CCCCl)cc(c23)C1=O` [Example 12, 4-chloro-N-{2-[2-(dimethylamino)ethyl]-1,3-dioxo-2,3-dihydro-1H-benzo[de]isoquinolin-5-yl}butanamide]: the IC50 in series [1] (setting [2]) is above 10 µM. Still for that read-out and setting: next, `CN(C)CCN1C(=O)c2cccc3cc(NC(=O)Cc4ccc(Cl)cc4)cc(c23)C1=O` [Example 13, 2-(4-chlorophenyl)-N-{2-[2-(dimethylamino)ethyl]-1,3-dioxo-2,3-dihydro-1H-benzo[de]isoquinolin-5-yl}acetamide]: 5 to 10 µM; `CCOC(=O)CC(=O)Nc1cc2c3c(cccc3c1)C(=O)N(CCN(C)C)C2=O` [Example 14, ethyl 3-({2-[2-(dimethylamino)ethyl]-1,3-dioxo-2,3-dihydro-1H-benzo[de]isoquinolin-5-yl}amino)-3-oxopropanoate]: above 10 µM; `COc1ccc(CC(=O)Nc2cc3c4c(cccc4c2)C(=O)N(CCN(C)C)C3=O)cc1` [Example 15, 2-(4-methoxyphenyl)-N-{2-[2-(dimethyl-amino)ethyl]-1,3-dioxo-2,3-dihydro-1H-benzo[de]isoquinolin-5-yl}acetamide]: 1 to 5 µM.

On to `CN(C)CCN1C(=O)c2cccc3cc(NC(=O)C(Cl)(Cl)Cl)cc(c23)C1=O` [Example 16, 2,2,2-trichloro-N-{2-[2-(dimethylamino)ethyl]-1,3-dioxo-2,3-dihydro-1H-benzo[de]isoquinolin-5-yl}acetamide], for which the IC50 in series [1] (setting [2]) is above 10 µM. The MTD at 14 days in “in vivo” is above 80 mg/kg. The corresponding values for `COc1cc(C=Nc2cc3c4c(cccc4c2)C(=O)N(CCN(C)C)C3=O)ccc1O` [Example 18, 5-{[(1Z)-(4-hydroxy-3-methoxyphenyl)methylene]amino}-2-[2-(dimethylamino)ethyl]l-1H-benzo[de]isoquinoline-1,3(2H)-dione] are above 10 µM and above 80 mg/kg. The corresponding values for `COc1cc(/C=N\c2cc3c4c(cccc4c2)C(=O)N(CCN(C)C)C3=O)cc(OC)c1OC` [Example 20, 2-[2-(dimethylamino)ethyl]-5-{[(1Z)-(3,4,5-trimethoxyphenyl)methylene]amino}-1H-benzo[de]isoquinoline-1,3(2H)-dione] are 5 to 10 µM and above 80 mg/kg. For `CN(C)CCN1C(=O)c2cccc3cc(NC(=S)Nc4ccc(OC(F)(F)F)cc4)cc(c23)C1=O` [Example 21], the IC50 in series [1] (setting [2]) is 1 to 5 µM. As for `CN(C)CCN1C(=O)c2cccc3cc(NC(=S)NCc4ccc5c(c4)OCO5)cc(c23)C1=O` [Example 22], in series [1] (setting [2]), the IC50 is above 10 µM. Further, the MTD at 14 days in the series “in vivo” was above 80 mg/kg. For `CN(C)CCN1C(=O)c2cccc3cc(NC(=S)Nc4ccc(Cl)cc4)cc(c23)C1=O` [Example 26, N-[2-[2-(dimethylamino)ethyl]-1,3-dioxo-2,3-dihydro-1H-benzo[de]isoquinolin-5-yl]-N′-(4-chlorophenyl)thiourea] the same measures were above 10 µM and above 80 mg/kg.

Take `CN(C)CCN1C(=O)c2cccc3cc(NC(=S)Nc4ccc(C#N)cc4)cc(c23)C1=O` [Example 27, N-[2-[2-(dimethylamino)ethyl]-1,3-dioxo-2,3-dihydro-1H-benzo[de]isoquinolin-5-yl]-N′-(4-cyanophenyl)thiourea]: the IC50 in series [1] (setting [2]) is above 10 µM. Besides, the MTD at 14 days in the series “in vivo” was above 80 mg/kg.

For the compound `CN(C)CCN1C(=O)c2cccc3cc(N=Cc4ccc(C#N)cc4)cc(c23)C1=O` [Example 28, 2-[2-dimethylamino)ethyl]-5-{[(1Z)-(4-cyano-phenyl)-5-ylmethylene]amino}-1H-benzo[de]isoquinolin-1,3(2H)-dione], the IC50 in series [1] (setting [2]) is 5 to 10 µM. The MTD at 14 days in “in vivo” is above 80 mg/kg.

For the compound `CN(C)CCN1C(=O)c2cccc3cc(NC(=O)C(F)(F)F)cc(c23)C1=O` [Example 29, 2,2,2-trifluoro-N-{2-[2-(dimethylamino)ethyl]-1,3-dioxo-2,3-dihydro-1H-benzo[de]isoquinolin-5-yl}acetamide], the IC50 in series [1] (setting [2]) was 5 to 10 µM.

For the compound `COc1ccc(NC(=O)Nc2cc3c4c(cccc4c2)C(=O)N(CCN(C)C)C3=O)cc1` [Example 30], the IC50 in series [1] (setting [2]) lay in the range of 1 to 5 µM.

`COc1ccc(OC(=O)Nc2cc3c4c(cccc4c2)C(=O)N(CCN(C)C)C3=O)cc1` [Example 31] showed an IC50 in series [1] (Homo sapiens, 72 h) of 10 µM. As for `CN(C)CCN1C(=O)c2cccc3cc(NC(=O)c4ccccc4)cc(c23)C1=O` [Example 32, 2-[2-(dimethylamino)ethyl]-1,3-dioxo-2,3-dihydro-1H-benzo[de]isoquinolin-5-ylbenzamide], the IC50 in series [1] (setting [2]) is above 10 µM. Consider `CN(C)CCN1C(=O)c2cccc3cc(/N=C\c4cc(O)ccc4O)cc(c23)C1=O.Cl` [Example 34, 2-[2-dimethylamino)ethyl]-5-{[(1Z)-(2,5-dihydroxyphenyl)methylene]amino}-1H-benzo[de]isoquinolin-1,3(2H)-dione hydrochloride], for which the IC50 in series [1] (read-out: IC50) lay in the range of 1 to 5 µM. In the series “in vivo”, `CN(C)CCN1C(=O)c2cccc3cc(NCc4ccc5c(c4)OCO5)cc(c23)C1=O.Cl` [Example 38, 5-{[1,3-benzodioxol-5-ylmethy]amino}-N-(2-[2-dimethylamino)ethyl]-1H-benzo[de]isoquinolin-1,3(2H)-dione hydrochloride] showed an MTD at 14 days above 80 mg/kg. With `CN(C)CCN1C(=O)c2cccc3cc(NCc4ccccc4OC4OC(CO)C(O)C(O)C4O)cc(c23)C1=O.Cl` (stereo not drawn) [Example 39, 5-{[2-(2-phenoxy-)-6-hydroxymethyltetrahydro-pyran-3,4,5-triol)-5-ylmethyl]amino}-N-(2-[2-dimethylamino)ethyl]-1H-benzo [de]isoquinolin-1,3(2H)-dione hydrochloride], the IC50 in series [1] (setting [3]) is above 10 µM. In the series “in vivo”, `CN(C)CCN1C(=O)c2cccc3cc(NCc4ccccc4OC4OC(CO)C(O)C(O)C4O)cc(c23)C1=O.Cl` (stereo not drawn) [Example 39] came in with an MTD at 14 days above 80 mg/kg.

In the case of `CN(C)CCN1C(=O)c2cccc3cc(NCc4cc5c(cc4[N+](=O)[O-])OCO5)cc(c23)C1=O.Cl` [Example 41, 5-{[(benzo([1,3]dioxol-6-nitro)-5-ylmethyl]amino}-N-(2-[2-dimethylamino)ethyl]-1H-benzo[de]isoquinolin-1,3(2H)-dione hydrochloride], in series [1] (setting [3]), the IC50 lay within 5 to 10 µM. In turn, `CN(C)CCN1C(=O)c2cccc3cc(NCc4cc5c(cc4[N+](=O)[O-])OCO5)cc(c23)C1=O.Cl` [Example 41] had an MTD at 14 days in “in vivo” above 80 mg/kg.
